Experimental data as given in PubChem BioAssay (NCI).
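These data come from cells grown in 96-well plates and exposed to compound for 48 hours at five concentrations. GI50: concentration for 50% inhibition of growth. Definition used: TGI = concentration required for complete inhibition of growth.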

Legend:
Test in all cases: inhibition of tumour cell growth, NCI panel, 48 h
IGROV1 ovarian = tested on: IGROV1 ovarian
OVCAR-4 ovarian = tested on: OVCAR-4 ovarian
SK-MEL-2 melanoma = tested on: SK-MEL-2 melanoma
ACHN renal = tested on: ACHN renal
RPMI-8226 leukemia = tested on: RPMI-8226 leukemia
NCI-H460 lung = tested on: NCI-H460 lung
SNB-75 CNS = tested on: SNB-75 CNS
CAKI-1 renal = tested on: CAKI-1 renal
SN12C renal = tested on: SN12C renal
HCT-116 colon = tested on: HCT-116 colon

| Structure (SMILES) | TGI (IGROV1 ovarian) [µM] | TGI (OVCAR-4 ovarian) [µM] | TGI (SK-MEL-2 melanoma) [µM] | TGI (ACHN renal) [µM] | TGI (RPMI-8226 leukemia) [µM] | TGI (NCI-H460 lung) [µM] | TGI (SNB-75 CNS) [µM] | TGI (CAKI-1 renal) [µM] | TGI (SN12C renal) [µM] | TGI (HCT-116 colon) [µM] | GI50 (IGROV1 ovarian) [nM] | GI50 (OVCAR-4 ovarian) [nM] | GI50 (SK-MEL-2 melanoma) [nM] | GI50 (ACHN renal) [nM] | GI50 (RPMI-8226 leukemia) [nM] | GI50 (NCI-H460 lung) [nM] | GI50 (SNB-75 CNS) [nM] | GI50 (CAKI-1 renal) [nM] | GI50 (SN12C renal) [nM] | GI50 (HCT-116 colon) [nM] |
| --- | --- | --- | --- | --- | --- | --- | --- | --- | --- | --- | --- | --- | --- | --- | --- | --- | --- | --- | --- | --- |
| CCc1nc(N)nc(N)c1-c1ccc(Cl)c(N=NN(C)C)c1 | > 95.5 | > 46.4 | 62.1 | > 89.7 | 49 | 40.5 | > 100 | > 96.9 | > 100 | > 75.1 |  |  |  |  |  |  |  |  |  |  |
| O=C1C(=O)c2c(nc3ncccn23)-c2ccccc21 | 0.566 | 0.297 | 0.532 | 0.373 | 0.602 | 0.526 | 0.793 | 1.9 | 0.325 | 0.379 | 245 | 161 | 243 | 174 | 198 | 227 | 378 | 640 | 173 | 184 |
| CC(C)(CCC(C)(C)c1ccccc1)c1ccccc1 | 79.7 | 39.7 | 31.5 | 31.7 | 36.1 | 31.9 | 36.7 | 48.2 | 32.7 | 29.4 |  |  |  |  |  |  |  |  |  |  |
